From patent publication US20110086923A1, “Method to increase oxygen in male and female sexual organs through the topical use of perfluorocarbons” (priority 2009, published 2011) come the findings set out here.

SMILES strings stand for the structures.

The data set can be described thus: Physical properties of F-tert-butylcyclohexane. The format is physicochemical. The source says: Oxycyte™ is a perfluorocarbon emulsion oxygen carrier. The active ingredient in Oxycyte™, perfluoro(tert-butylcyclohexane) (C10F20, MW-500), also known as F-tert-butylcyclohexane or “FtBu”, is a saturated alicyclic PFC.
Oxycyte™ can be used as a PFC composition in the methods and uses described herein. Physical properties of F-tert-butylcyclohexane are as follows: […]

In the case of `FC(F)(F)C(C(F)(F)F)(C(F)(F)F)C1(F)C(F)(F)C(F)(F)C(F)(F)C(F)(F)C1(F)F` [Perfluoro(tert-butylcyclohexane), perfluoro(tert-butylcyclohexane)], the Density is 1.97 g/mL, the “Kinematic Viscosity” value is listed as 5.378 cP, the lipophilicity entry is reported as “non-lipophilic” and the water solubility result is recorded as “non-water soluble”. For the setting “25° C.”, the “Vapor Pressure @ 25° C.” value is reported as 3.8 mmHg. In addition, the “Vapor Pressure @ 37° C.” value (37° C.) came out at 4.4 mmHg.
